Entries after “also recorded” stand apart in the source; their conditions may differ.

Assay [1] concerns MDA-MB-231 cells. Kind of assay: Elongation factor (length-to-width ratio), MDA-MB-231. The format is cell-based. The settings on record: MDA-MB-231, with NGF. The method, then: Therefore, in this study, we assessed TrkA binding to CD44v3 in MDA-MB-231 cells, which were used as TNBC model cells. First, PLA was performed using anti-CD44 variant 3- (Fig. 3A and Supplementary Fig. 7) or anti-CD44 variant 6-specific antibodies (Fig. 3B). […] Next, we tested the ability of CD44v3 mimetic peptides to block TrkA/CD44v3 complex formation in MDA-MB-231 cells (Fig. 3C-E). […] Therefore, we evaluated the physiological consequences of TrkA/CD44v3 complex dissociation induced by CD44v3 mimetic peptide 4 on MDA-MB-231 cell phenotypes (Fig. 4). We first examined the effect of mimetic peptide 4 on clonogenic cell growth. For this experiment, MDA-MB-231 cells were grown in the presence of 2% FBS for […] in the presence or absence of CD44v3 mimetic peptide 4 (Fig. 4A and B). […] We first determined the effect of CD44v3 on the length-to-width (l/w) ratio of the cells (elongation factor) (Fig. 4C-E). […]
Fig. 4 CD44v3 mimetic peptide 4 inhibits MDA-MB-231 breast cancer cell growth and migration/invasion. Clonogenic MDA-MB-231 cell growth was measured after 10 days in the presence of a scramble peptide (SP) or CD44v3 mimetic peptide (P4) (A, B). The elongation factor (length-to-width ratio) was assessed after 10 days in the presence or absence of NGF (C, D, E). […] Invasion through collagen 1 was measured by the Transwell assay 16 h after treatment (J, K). […]

Assay [2] concerns TrkA/CD44v3 complex in COS-7 cells expressing TrkA and CD44v3. Kind of assay: PLA TrkA/CD44v3 complex formation in COS-7 cells. It is filed as cell-based, African green monkey (COS-7 cells). To be noted: COS-7 expressing TrkA and CD44v3; NGF 100 ng/ml, 0, 5 and 30 min; 30 fields per condition, three experiments. The method, then: Cells (10,000 cells per well) were grown on acid-washed eight-well glass slides (Thermo Scientific) in the appropriate medium supplemented with 10% FBS for 24 h. After NGF treatment, paraformaldehyde (PAF)-fixed cells were incubated with 4% bovine serum albumin (BSA) or 5% FBS (for 1 h at 20 °C), followed by overnight incubation with primary antibodies (rabbit anti-TrkA or rabbit anti-IgG + mouse anti-pan-CD44; mouse anti-CD44v3; mouse anti-CD44v6; mouse anti-IgG2a; mouse anti-IgG2b; or mouse anti-IgG1). PLA was performed following the manufacturer’s instructions in the assay kit (Duolink PLA; Sigma–Aldrich). To obtain the correct representation of the PLA signal for each condition, 30 fields per condition were observed using a fluorescence microscope (Eclipse TiU; Nikon, Japan). The PLA signals (red dots) were automatically quantified using ImageJ software (with an in-house-developed plug-in). After PLA, statistical analyses were performed using GraphPad Prism software to determine the mean dot intensity in the cells.
Fig. 1 The C-terminal region of CD44 variant 3 binds to TrkA. A Schematic representation of the CD44 gene and protein structure. Alternative splicing leads to the expression of CD44 variants, thus the insertion of exon 8 leads to the expression of a CD44 protein containing variant 3 (CD44v3) and the insertion of exon 11 leads to the expression of a CD44 containing variant 6 (CD44v6) (B) TrkA/CD44v3 complex formation in COS-7 cells expressing TrkA and CD44v3 was detected by the proximity ligation assay (PLA), which was performed 0, 5 and 30 min after the initiation of NGF (100 ng/ml) treatment. The images represent signals detected by PLA. Quantification of the red spots was performed by ImageJ software (30 randomly chosen fields per condition of three different experiments). Statistical analyses were performed using one-way ANOVA followed by Bonferroni’s posttest. Error bars represent the standard error of the mean (S.E.M.); *** p < 0.001. ns, nonsignificant. C NGF and/or TrkA binding to CD44v3 was measured by microscale thermophoresis (MST). MST experiments were performed on whole cell extracts of COS-7 cells expressing CD44v3. […]
Fig. 2 The C-terminal region of CD44v3 and the His112 residue of TrkA are involved in the CD44v3/TrkA interaction. TrkA/CD44v3 complex association was detected by the proximity ligation assay (PLA) in wild-type TrkA- or TrkA_H112A- and CD44v3-expressing COS-7 cells. […] Representative images of signals detected by PLA (A) and their quantification (B). […] TrkA/CD44v3 complex association was detected by PLA in wild-type TrkA and CD44v3 wild type or CD44v3 deleted mutant Δ3 or Δ4 expressing COS-7 (D, E). […] Quantification of PLA was performed using ImageJ software (30 fields per condition of three different experiments). […]

Assay [3] relates to MDA-MB-231 cells. Put plainly: Scratch/wound migration assay, MDA-MB-231. It is filed as cell-based. To be noted: peptide 50 ng/mL 30 min before NGF 100 ng/ml; 24 h, 0.1% FBS; siCD44v3 24 h after treatment. How it is done: Scratch/wound migration assays were performed using inserts (Ibidi, Germany). MDA-MB-231 cells (4 × 10^5 cells/mL) were seeded onto each side of the chamber and incubated overnight at 37 °C until they reached the subconfluent stage. Next, the inserts were removed, and the cells were rinsed and starved (1 mL of 0.1% FBS medium for 1 h). Images of the initial wound were obtained using an inverted microscope, and the cells were incubated with or without the peptide (scramble or P4; 50 ng/mL) for 30 min and stimulated with NGF (100 ng/ml). After 24 h, images (2/wound) were obtained of the same place on the wound as those initially taken. The distance between the 2 migration fronts was measured using ImageJ software.
Fig. 4 CD44v3 mimetic peptide 4 inhibits MDA-MB-231 breast cancer cell growth and migration/invasion. Clonogenic MDA-MB-231 cell growth was measured after 10 days in the presence of a scramble peptide (SP) or CD44v3 mimetic peptide (P4) (A, B). The elongation factor (length-to-width ratio) was assessed after 10 days in the presence or absence of NGF (C, D, E). Migration assays were performed using Ibidi devices 24 h after treatment (H, I). Invasion through collagen 1 was measured by the Transwell assay 16 h after treatment (J, K). Statistical analyses were performed using one-way ANOVA followed by Bonferroni’s posttest. […]

On to “IDDDEDFISST [Peptide 4, mimetic peptide 4 (…) corresponding to the C-terminal region of CD44v3]”, for which the “effect on length-to-width (l/w) ratio (elongation factor)” value with MDA-MB-231 cells [1] is listed as “This effect of NGF was inhibited”. In addition, the “effect on TrkA/CD44v3 complex formation (PLA) in COS-7 cells” value in assay [2] is listed as “could decrease NGF-induced TrkA/CD44v3 complex formation in COS-7 cells”. Moreover, the “effect on migration (wound closure) of MDA-MB-231 cells” value with MDA-MB-231 cells [3] is listed as “completely blocked NGF-dependent wound closure”.
For the substance “NGF: recombinant human β-NGF (Alomone Labs, Israel)”, the “effect on length-to-width (l/w) ratio (elongation factor)” value with MDA-MB-231 cells [1] is “significant increase in the l/w ratio”. In addition, the “effect on TrkA/CD44v3 complex formation (PLA) in COS-7 cells” value in assay [2] is “increased the PLA-detected TrkA/CD44v3 signal in the plasma membrane of COS-7 cells following NGF stimulation; also recorded: transient and decreased 30 min after NGF stimulation”. The “effect on migration (wound closure) of MDA-MB-231 cells” value with MDA-MB-231 cells [3] was “the migration of MDA-MB-231 cells was increased, as indicated by complete wound closure 24 h after treatment”.

The values above are taken from PMC8962522, “Direct interaction of TrkA/CD44v3 is essential for NGF-promoted aggressiveness of breast cancer cells” (Journal of Experimental & Clinical Cancer Research : CR, 2022).
